# From PubChem BioAssay AID651569 (Sanford-Burnham Center for Chemical Genomics, 2012)
# The source made the active and inactive calls. How the calls were made is not given here.
# System: luminescent cytotoxicity (cell viability) counter-screen
# Test: cytotoxicity of Gli-SUFU antagonist hits, dose response, cytotoxicity control for Gli-SUFU antagonist project, cell-based, luminescence, uHTS hits (AID 651569);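 further: compound exposure lasted overnight before the viability readout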
row,SMILES,IC50
1,CC(C)(C)c1ccc(CN2C3=NCCCN3c3ccccc32)cc1,19.1 µM
2,CCCCCCCOc1ccc(OC(=O)c2ccncc2)cc1,> 20 µM (inactive)
3,CCOC(=O)CSc1c(-c2cccs2)[nH]c2ccccc12,> 20 µM (inactive)
4,CCCCCCC[N+](CC)(CC)CCCCc1ccc(Cl)cc1,> 20 µM (inactive)
5,CCOC(=O)c1c(NC(=O)COc2cccc3c2CCN(C)C3=O)sc2c1CCC2,> 20 µM (inactive)
6,COc1cc2c(c(OC)c1OC)-c1ccc(N(C)CC(OC)OC)c(=O)cc1[C@@H](NC(C)=O)CC2,10.6 µM
7,C(#Cc1ccccc1)C[N+]1(CC#Cc2cccc3ccccc23)CCCC1,> 20 µM (inactive)
8,CC[N+](CC)(CC#Cc1ccccc1)CC#Cc1ccccc1,> 20 µM (inactive)
9,O=[N+]([O-])c1ccc(N2CCN(C(=S)NCc3ccc(Cl)cc3)CC2)cc1,> 20 µM (inactive)
10,COCCNC(=O)CSCc1nc(-c2ccc(SC)cc2)oc1C,> 20 µM (inactive)
11,Cc1ccc2c(c1)S/C(=C/c1ccc[n+](C)c1)N2CCO,> 20 µM (inactive)
12,COc1ccc(NS(=O)(=O)c2ccc(N3CCN(CCO)CC3)c([N+](=O)[O-])c2)cc1,> 20 µM (inactive)
13,O=C(c1ccc(C(F)(F)F)cc1)C1CCCN(Cc2ccncc2)C1 (stereo unspecified),18.2 µM
14,CCOC(=O)N1CCN(C(=O)c2ccc(CSc3ccc(Cl)cc3)cc2)CC1,> 20 µM (inactive)
15,O=C(Cn1cc(C(=O)C2CC2)c2ccccc21)Nc1ccccc1Cl,> 20 µM (inactive)
16,CNS(=O)(=O)c1cccc(C(=O)OCC(=O)c2cc(C)n(CC3CCCO3)c2C)c1 (stereo unspecified),> 20 µM (inactive)
17,O=C(C[C@@H]1C/C=C\C[C@H](NC(=O)OCC2c3ccccc3-c3ccccc32)C(=O)OC[C@H]2CCCN2C1=O)N[C@H](CO)Cc1ccccc1,> 20 µM (inactive)
18,O=C(Nc1ccc(C(F)(F)F)cc1)C1CCN(S(=O)(=O)c2ccc(N3CCCC3=O)cc2)CC1,> 20 µM (inactive)
19,Cc1nc2ncccn2c1-c1csc(Nc2ccc(O)cc2)n1,> 20 µM (inactive)
20,CC(C)(C)OC(=O)N1CCC(c2cc(-c3cccs3)n[nH]2)CC1,> 20 µM (inactive)
21,CCn1c(=NC(=O)CCS(=O)(=O)c2ccccc2)sc2cccc(OC)c21,> 20 µM (inactive)
22,C[C@@H]1COC(=O)[C@@H](NC(=O)OCC2c3ccccc3-c3ccccc32)C/C=C\C[C@@H](CC(=O)N(CCO)Cc2ccccc2)C(=O)N1,> 20 µM (inactive)
23,CC(C)n1c(-c2ccco2)csc1=Nc1cccnc1,> 20 µM (inactive)
24,CCn1c(/C=C/Nc2ccccc2)[n+](CC)c2cc(Cl)c(Cl)cc21,9.98 µM

row,SMILES,IC50
1,O=C(C[C@H]1C/C=C\C[C@@H](NC(=O)OCC2c3ccccc3-c3ccccc32)C(=O)O[C@@H](c2ccccc2)CNC1=O)N[C@H](CO)Cc1ccccc1,> 20 µM (inactive)
2,O=C(N[C@@H]1C/C=C\C[C@H](CC(=O)N(CCO)Cc2ccccc2)C(=O)N[C@@H](Cc2c[nH]c3ccccc23)COC1=O)OCC1c2ccccc2-c2ccccc21,> 20 µM (inactive)
3,COc1ccc(C2=[N+](C)CCn3cccc32)c(OC)c1,> 20 µM (inactive)
4,CCOc1ccc(-c2nc(CSCC(=O)NC3CC3)c(C)o2)cc1,> 20 µM (inactive)
5,COc1ccccc1-c1c(-c2ccc(O)cc2O)n[nH]c1C(F)(F)F,> 20 µM (inactive)
6,Nc1nc2ccccc2n1/N=C/c1ccc([N+](=O)[O-])s1,> 20 µM (inactive)
7,COc1cccc2nc3c(C(=O)NCCN(C)C)cccc3cc12,10.6 µM
8,FC(F)Oc1ccc(-n2cc(-c3ccccc3)[n+]3c2CCCCC3)cc1,> 20 µM (inactive)
9,CCC(C)CCN1C(N(C)C)=NC[C@@H]1CC(C)C (stereo partly specified),> 20 µM (inactive)
10,Cc1c(C(C)C)c(=O)n(-c2ccc(S(=O)(=O)NC3CCCCC3)cc2)n1C,9.32 µM
11,CCCc1c(CC)c(=N)c2ccccc2n1C,> 20 µM (inactive)
12,Cc1ccc(NCC(=O)Nc2cccc(S(=O)(=O)N(C)C)c2)cc1S(=O)(=O)N1CCCCCC1,> 20 µM (inactive)
13,CC1CN(S(=O)(=O)c2ccc(C(=O)Nc3nc(-c4cc5ccccc5o4)cs3)cc2)CC(C)O1 (stereo unspecified),> 20 µM (inactive)
14,COCCOc1nc2c(c(=O)n(C)c(=O)n2C)n1Cc1cccc(OC)c1,> 20 µM (inactive)
15,CC(NC(=O)c1cc2c(=O)n3ccccc3nc2n(CC2CCCO2)c1=N)c1ccccc1 (stereo unspecified),> 20 µM (inactive)
16,CNc1ccccc1C(C)(C)c1cc(-c2cccc(Br)c2)no1,> 20 µM (inactive)
17,O=C(Cc1ccc(Cl)cc1Cl)Nc1ccncc1,> 20 µM (inactive)
18,O=c1c2ccccc2sc2c(CO)ccc(NCCN3CCCCC3)c12,19.1 µM
19,COc1cc(C(=O)NC2CCN(C)CC2)ccc1Nc1ncc2c(n1)N(CCc1ccccc1)CCC(=O)N2C,> 20 µM (inactive)
20,Cc1cccnc1CN1CCN(C(=O)c2cc(COc3ccc4ncccc4c3)on2)CC1,> 20 µM (inactive)
21,CCC(C)NS(=O)(=O)c1ccc(S(=O)(=O)N2CCCC3(CCCCC3)C2)cc1 (stereo unspecified),> 20 µM (inactive)
22,COC(=O)C1=C(c2cc3ccccc3o2)C[C@@H]2CC[C@H]1N2C(=O)N1CCC(C)CC1,> 20 µM (inactive)
23,COc1ccc(CCNc2ncnc3c2oc2ccccc23)cc1OC,> 20 µM (inactive)
24,O=C(Nc1cc(N2CCCCC2)ncn1)c1ccccc1,> 20 µM (inactive)

row,SMILES,IC50
1,COc1ccc(Cn2c(-c3ccc(Cl)cc3)c[n+]3ccccc23)cc1,> 20 µM (inactive)
2,Cc1nn(-c2ccc(NC(=O)c3ccncc3)cc2)c(C)c1Cl,> 20 µM (inactive)
3,Cc1ccc(S(=O)(=O)N2CCN(C(=O)C3CCN(c4ncnc5sc(C)c(C)c45)CC3)CC2)c(C)c1,> 20 µM (inactive)
4,Cc1ccc(NC(=O)COc2ccccc2C(N)=O)cc1S(=O)(=O)N1CCCCCC1,19.8 µM
5,Cc1cccc(C)c1NC(=S)N(CCN1CCCCCC1)Cc1ccco1,> 20 µM (inactive)
6,CCn1cc[n+](C)c1P(c1ccccc1)c1ccccc1,> 20 µM (inactive)
7,CCCn1c2c(c(=N)c3c1CCC3)CCCC2,> 20 µM (inactive)
8,CCc1c(C)nc2ncnn2c1N1CCN(S(=O)(=O)c2ccc(OC)cc2)CC1,> 20 µM (inactive)
9,COc1ccc(-n2c(-c3ccc(Cl)cc3)c[n+]3c2CCc2ccccc2-3)cc1,> 20 µM (inactive)
10,CN(C)CCn1c2ccccc2c2nc3ccc([N+](=O)[O-])cc3cc21,> 20 µM (inactive)
11,COc1ccc(NS(=O)(=O)c2ccc(N3CCCCC3)c(N)c2)cc1,> 20 µM (inactive)
12,COc1ccc(OC)c(Cc2cnc3nc(N)nc(N)c3c2C)c1,> 20 µM (inactive)
13,Cc1csc2ncnc(NCCc3ccccn3)c12,> 20 µM (inactive)
14,O=C(c1cnc(N2CCN(c3ccccn3)CC2)c2ccccc12)N1CCN(c2cccc(Cl)c2)CC1,> 20 µM (inactive)
15,CC1CCN(Cc2c(C(=O)N/N=C/c3ccccc3O)nnn2-c2nonc2N)CC1,> 20 µM (inactive)
16,CCC(C)[C@H]1CN=C(N)N1CCc1cccc2ccccc12 (stereo partly specified),> 20 µM (inactive)
17,Cc1ccc(O)c(NC(=O)COc2cc(C)ccc2C)c1,> 20 µM (inactive)
18,CCCCn1c(CN(C)Cc2ccccc2)nc2c1c(=O)n(C)c(=O)n2C,> 20 µM (inactive)
19,CCOc1ccc(-n2c(-c3ccc(Cl)cc3)c[n+]3c2SCC3)cc1,19 µM
20,CCCCOc1ncnc2c1[nH]c1ccc(F)cc12,> 20 µM (inactive)
21,Cc1nc2ccccc2c2c1CC(C(C)(Cl)Br)O2 (stereo unspecified),> 20 µM (inactive)
22,COc1ccc(NC(=S)N2CCC(Cc3ccccc3)CC2)cc1,> 20 µM (inactive)
23,FC(F)Oc1ccc(-c2c[n+]3c(n2-c2ccccc2)CCCCC3)cc1,> 20 µM (inactive)
24,C=CCOc1nc2c(c(=O)n(C)c(=O)n2C)n1Cc1ccc(Cl)cc1,> 20 µM (inactive)

row,SMILES,IC50
1,c1ccc2c(c1)OCC(CNc1ncnc3sccc13)O2 (stereo unspecified),> 20 µM (inactive)
2,NC(=O)c1c(-c2ccc(Cl)cc2Cl)csc1NC(=O)Cc1ccccc1,16.8 µM
3,CCCCNc1c(-c2ccc(OC)c(Sc3ccc(OC)cc3)c2)nc2ccccn12,12.9 µM
4,CC(=O)/C(=N\Nc1ccc(Cl)cc1Cl)Sc1cccc2cccnc12,> 20 µM (inactive)
5,Cn1c(=O)c2c(nc(NCCOc3ccc(C(C)(C)C)cc3)n2C)n(C)c1=O,> 20 µM (inactive)
6,CC(C)C(=O)N1CCN(c2ccccc2NC(=O)COc2ccccc2)CC1,> 20 µM (inactive)
7,Cc1ccc(C)c(N2CC(O)(c3cccs3)[N+]3=C2CCCC3)c1 (stereo unspecified),> 20 µM (inactive)
8,Cn1c(=O)c2c(nc(NCc3ccco3)n2Cc2ccc(Cl)cc2Cl)n(C)c1=O,> 20 µM (inactive)
9,CCCCn1c(SCc2c(C)noc2C)nc2cc(S(N)(=O)=O)ccc21,> 20 µM (inactive)
10,COc1ccc(-c2c[n+](CC(=O)c3ccccc3)c3n2CCCCC3)cc1,> 20 µM (inactive)
11,O=C(C1CCCCC1)N1CCN(c2ccnc3cc(Cl)ccc23)CC1,> 20 µM (inactive)
12,CC(C)(C)C1CCC(OC(=O)C[N+]2(C)CCCCC2)CC1 (stereo unspecified),> 20 µM (inactive)
13,Cc1cccc(CCN2C(N(C)C)=NC[C@@H]2CC(C)C)c1,18.2 µM
14,Cc1sc2ncnc(NCC3COc4ccccc4O3)c2c1C (stereo unspecified),> 20 µM (inactive)
15,CC1C(OC(=O)CCC(=O)NC(C)(C)CO)O[C@H]2OC3(C)CC[C@H]4[C@H](C)CCC1C24OO3 (stereo partly specified),> 20 µM (inactive)
16,Cc1nc2cc(N3CCN(C)CC3)c(NC(=O)Cc3ccccc3)cc2c(=O)n1Cc1ccccc1,> 20 µM (inactive)
17,CN(CCOc1ccc(Cl)cc1)C(=O)c1cccc(S(=O)(=O)N2CCN(c3ccc(F)cc3)CC2)c1,> 20 µM (inactive)
18,C[N+]1(CC(=O)OC2CCCCCCCCCCC2)CCCC1,> 20 µM (inactive)
19,CCCCN(C(C)=O)c1ccc2c(c1)C1CC2CCN1C(=O)OCc1ccccc1 (stereo unspecified),8.16 µM
20,Clc1ccc(-c2cn(-c3ccc(Cl)cc3)c3[n+]2CCCCC3)cc1,> 20 µM (inactive)
21,O=C(Nc1ccncc1)c1ccc(-c2ccccc2)cc1,> 20 µM (inactive)
22,O=C(c1ccc(Cl)cc1)N1CCN(c2ccnc3cc(Cl)ccc23)CC1,> 20 µM (inactive)
23,CCOc1ccc(NS(=O)(=O)c2cccc(C(=O)N3CCN(C/C=C/c4ccccc4)CC3)c2)cc1,> 20 µM (inactive)
24,CCCCSc1nc2sc3c(c2c(=O)n1-c1ccc(C)cc1)CCN(C)C3,> 20 µM (inactive)
